Key:
VCAM-1 = assay: In Vitro VCAM-1 Assay (TNF-α stimulated endothelial cells, cell-surface ELISA); assay type: cell-based; details: Homo sapiens, Endothelial cell, 16 h, primary human aortic (HAEC) or pulmonary (HPAEC) endothelial cells, TNF-α 1 ng/ml, approximately 16 hours, ELISA OD 450 nm
Experimental: Cell Culture and compound dosing: Cultured primary human aortic (HAEC) or pulmonary (HPAEC) endothelial cells were obtained from Clonetics, Inc., and were used below passage 9. Cells were seeded in 96 well plates such that they would reach 90–95% confluency by the following day. On the following day the cells were stimulated with TNF-α (1 ng/ml) in the presence or absence of compounds dissolved in DMSO such that the final concentration of DMSO is 0.25% or less. To establish a dose curve for each compound, four concentrations in 2- to 5-fold increments were used. Cells were exposed to TNF-α and compounds for approximately 16 hours. The next day the cells were examined under microscope to score for visual signs of toxicity or cell stress.
Following 16 hr exposure to TNF-α and compound the media was discarded and the cells were washed once with Hanks Balanced Salt Solution (HBSS)/Phosphate buffered saline (PBS) (1:1). Primary antibodies against VCAM-1 (0.25 μg/ml in HBSS/PBS+5% FBS) were added and incubated for 30–60 minutes at 37° C. Cells were washed with HBSS/PBS three times, and secondary antibody Horse Radish Peroxidase (HRP)-conjugated goat anti-mouse IgG (1:500 in HBSS/PBS+5% FBS) were added and incubated for 30 minutes at 37° C. Cells were washed with HBSS/PBS four time and TMB substrate were added and incubated at room temperature in the dark until there was adequate development of blue color. The length of time of incubation was typically 5–15 minutes. 2N sulfuric acid was added to stop the color development and the data was collected by reading the absorbance on a BioRad ELISA plate reader at OD 450 nm. The results are expressed as IC50 values (the concentration (micromolar) of compound required to inhibit 50% of the maximal response of the control sample stimulated by TNF-α only).

COc1cc(OC)c(-c2cc3ccccc3[nH]2)cc1/C=C/C(=O)c1ccc(S(=O)(=O)NCC(=O)O)cc1 [Example 51, (4-{3E-[5-(1H-Indol-2-yl)-2,4-dimethoxyphenyl]acryloyl}benzenesulfonylamino)acetic acid]
IC50 (VCAM-1): > 10 µM
melting point: 189 to 190 °C

COc1cc(OC)c(N2CCCC2)cc1/C=C/C(=O)c1ccc(S(=O)(=O)Nc2ccccn2)cc1 [Example 52, 4-[3E-(2,4-Dimethoxy-5-pyrrolidin-1-yl-phenyl)-acryloyl]-N-pyridin-2-yl-benzenesulfonamide]
IC50 (VCAM-1): < 5 µM
melting point: 124 to 128 °C

COc1cc(OC)c(N2CCCC2)cc1/C=C/C(=O)c1ccc(S(=O)(=O)NCc2ccccn2)cc1 [Example 53, 4-[3E-(2,4-Dimethoxy-5-pyrrolidin-1-ylphenyl)acryloyl]-N-pyridin-2-ylmethylbenzenesulfonamide]
IC50 (VCAM-1): < 5 µM
melting point: 112 to 116 °C

COc1cc(OC)c(N2CCCC2)cc1/C=C/C(=O)c1ccc(S(=O)(=O)NCCCn2ccnc2)cc1 [Example 54, 4-[3E-(2,4-Dimethoxy-5-pyrrolidin-1-ylphenyl)acryloyl]-N-(3-imidazol-1-ylpropyl)benzenesulfonamide]
IC50 (VCAM-1): > 5 µM
melting point: 140 to 143 °C

COc1cc(OC)c(N2CCCC2)cc1/C=C/C(=O)c1ccc(S(=O)(=O)NCCCN2CCN(C)CC2)cc1 [Example 55, 4-[3E-(2,4-Dimethoxy-5-pyrrolidin-1-ylphenyl)acryloyl]-N-[3-(4-methyl-piperazin-1-yl)propyl]benzenesulfonamide]
IC50 (VCAM-1): > 10 µM
melting point: 64 to 68 °C

COc1cc(OC)c(N2CCCC2)cc1/C=C/C(=O)c1ccc(S(=O)(=O)NCC(=O)O)cc1 [Example 56, {4-[3E-(2,4-Dimethoxy-5-pyrrolidin-1-ylphenyl)acryloyl]benzenesulfonylamino}acetic acid]
IC50 (VCAM-1): > 10 µM
melting point: 155 to 158 °C

COc1cc(OC)c(-c2cc3ccccc3[nH]2)cc1/C=C/C(=O)c1ccc(S(=O)(=O)Nc2ccccn2)cc1 [Example 57, 4-{3E-[5-(1H-Indol-2-yl)-2,4-dimethoxyphenyl]acryloyl}-N-pyridin-2-ylbenzenesulfonamide]
IC50 (VCAM-1): < 5 µM
melting point: 206 to 208 °C
